The results in this text go back to publication PMC8348310, “Antioxidants Isolated from Elaeagnus umbellata (Thunb.) Protect against Bacterial Infections and Diabetes in Streptozotocin-Induced Diabetic Rat Model” (Molecules, 2021).

What all share (assay type): in vivo, Sprague Dawley adult albino rats
Data set [1] deals with STZ-induced diabetic rats. The data set is described as follows: STZ-induced diabetic rat model: serum biochemical parameters (liver, renal, lipid profile, HbA1c). The method, then:
All the animals were separated into nine groups having eight animals each (Table 1). In the current investigational study STZ-induced diabetic model was used to evaluate the anti-hyperglycemic and anti-hyperlipidemic activity of isolated compound morin in chronic multiple dose experiment. All the animals were treated with their respective treatments for 21 days starting daily at 09:00 am. The fasting blood glucose levels were determined at 0, 4th, 7th, 10th, 15th, and 21st days with glucometer from the tail vein. Changes in the body weight were recorded for untreated control, diabetic, and treated groups in fasting condition from day 1 to day 21 of experimental period and are presented as % increase in body weight.
According to the reported protocol diabetes was induced into Sprague Dawley adult albino rats by intraperitoneal injection of STZ (50 mg/kg body weight). Blood samples were collected from the tail vein through glucometer strips by means of SD glucometer and the level of blood glucose was measured 72 h after STZ injection. Normal control groups were given normal saline (8 mL/kg, p.o.) as a vehicle, while isolated compound morin to the treatment groups from 3 days after STZ administration for 3 weeks. Animals with blood glucose levels higher than 300 mg/dL were considered diabetic. During the experiment the blood glucose level and body weights were measured.
On 21st day of in vivo antidiabetic activity, all the animals were anesthetized by intraperitoneal (IP) injection of pentobarbital sodium (35 mg/kg body weight) and euthanized by means of cervical decapitation according to the ARRIVE guidelines. Blood samples were collected by cardiac puncture and transferred to EDTA containing tubes. Blood was centrifuged at 3500 rpm for 10 min for the separation of serum. Biochemical parameters like serum alkaline phosphatase (ALP), serum glutamate pyruvate transaminase (SGPT), serum glutamate oxaloacetate transaminase (SGOT) and lipid parameters like total cholesterol (TC), triglycerides (TG), low-density lipoproteins (LDL), high-density lipoprotein (HDL), and serum creatinine in serum were assessed by using Biochemistry analyzer (PS-520; Shenzhen Procan Electronics-China) using diagnostic kits (Reactivos, GPL Barcelona, Spain). According to the reported protocol an enzyme-linked immunosorbent assay (ELISA) kit was used to evaluate the level of glycosylated hemoglobin (HbA1c).

The test system of data set [2] is STZ-induced diabetic rats. The data set is described as follows: Antioxidant enzymes and oxidative stress markers in pancreas tissue homogenates of STZ-induced diabetic rats. The method, then: The pancreas tissue (1 g) was isolated from Sprague Dawley rats, washed with cold saline solution and blotted dried. A weighed portion of the pancreas tissue was homogenized on ice and then centrifuged for 15 min at 3500 rpm at 4 °C. The supernatant was then taken and stored at −20 °C until assessed for different enzymes.
The activities of reduced glutathione (GSH) level were determined in the pancreatic tissues according to the previously established method. About 300 µL of tissue supernatant was centrifuged for 5 min at 3500 rpm following deproteinization with 300 µL of 10% trichloroacetic acid. In total, 200 µL of the resulting supernatant of each sample (at concentrations 2, 5, 10, 15, 30, and 50 µg/mL) was mixed with 50 µL of Ellman’s reagent (5,5′-dithiobis-(2-nitro-benzoic acid)) (DTNB) then centrifuged at 3000 rpm for 15 min. The absorbance was recorded at 412 nm. A series of standards treated in a similar way were also run to determine the glutathione content. The amount of glutathione is expressed as µmole/mg of tissue protein.
. […] The pink colored TBARS was measured photometrically at 532 nm and tissue MDA was determined from a standard curve and is expressed as nmole/mg of tissue protein. […]

The test system of data set [3] is STZ-induced diabetic rats. The data set is described as follows: Pancreas histopathological assessment (H & E). The source says:
For histopathological assessment, the pancreas tissues were removed immediately and washed with cold saline solution to remove the blood. Finally, the pancreas portions were fixed in 10% formalin, dehydrated with mixture of ethanol/xylene and then fixed with paraffin. Staining of tissue slides was done with hematoxylin and eosin (H & E) dye through automatic slide stainer (Sakura Tissue-Tek® DRS™ 2000; Tokyo, Japan). According to the reported assay, the stained slides were observed under microscope to see any variation in pancreatic tissue architecture of STZ-induced diabetic group and treated (glibenclamide/morin) groups.

A short description of data set [4]: Acute toxicity study. Particulars: oral 50, 100, 150, 200, 250, 300, and 500 mg/kg body weight; observed 4 h, 24 h to 1 week. The method, then:
Sprague Dawley adult albino rats (body weight range = 170–200 g) were used in in vivo studies. The animals were purchased from Rifah Institute of Pharmaceutical Sciences Islamabad. The entire animals were given food and fresh water ad libitum. The animals were adjusted at room temperature around 22–25 °C. The animals were housed three rats per cage and maintained with light/dark cycle of about 12 h. All the in vivo procedures were carried out according to the ARRIVE guidelines and approval was taken from the Departmental Animal Ethical Committee (DAEC/2019/1), University of Malakand.
For acute toxicity study all the animals were treated orally with different doses (50, 100, 150, 200, 250, 300, and 500 mg/kg body weight) of isolated compound morin. After that the animals were kept under observation for 4 h for signs of toxicity (respiratory aches, convulsions, motor activity, tremors, muscle spasm, sedation, diarrhea, loss of righting reflex, hypnosis, and salivation). All the animals appeared healthy for 24 h to 1 week with no noticeable changes in appearance or behavior, and no signs of mortality were noticed. […]

[5] abbreviates: glibenclamide 0.5 mg/kg, morin 15, 30, and 50 mg/kg, vs diabetic control rats.
Where [6] appears, read: glibenclamide 5 mg/kg, morin 15, 30, and 50 mg/kg body weight, serum, day 21, vs diabetic control.

Regarding `O=c1c(O)c(-c2ccc(O)cc2O)oc2cc(O)cc(O)c12` [Morin, 2-(2,4-Dihydroxyphenyl)-3,5,7-trihydroxychromen-4-one], in data set [1] (setting [5]), the HDL cholesterol result is recorded as “significantly increased (p < 0.01)”, the HbA1c level result is recorded as “significant decrease (p < 0.01; p < 0.001)”, the LDL level result is recorded as “significant decrease (p < 0.01; p < 0.001)” and the TC level result was “significant decrease (p < 0.01; p < 0.001)”. Further, the TG level entry in data set [1] (setting [5]) is listed as “significant decrease (p < 0.01; p < 0.001)”. Also, the serum creatinine level entry in data set [1] (glibenclamide 5 mg/kg, morin 15, 30, and 50 mg/kg body weight, day 21, vs diabetic control) is on record as “significantly reduced (p < 0.01; p < 0.001)”. Also, in data set [1] (setting [6]), the ALP level result was “significantly reduced (p < 0.01; p < 0.001)”, the SGOT level result was “significantly reduced (p < 0.01; p < 0.001)” and the SGPT level entry was “significantly reduced (p < 0.01; p < 0.001)”. The “MDA level (lipid peroxidation)” value in data set [2] (morin 2, 5, 10, 15, 30, and 50 µg/kg body weight, pancreas tissue homogenates) was “significantly (p < 0.05, p < 0.01, p < 0.001) decreased”. The GPx activity entry in data set [2] (morin, pancreatic tissues homogenates of diabetic rats) was “significantly increased”. Moreover, in data set [3] (morin 2, 5 mg/kg orally), the pancreas histopathology result is reported as “did not show restoration of pancreatic tissue”. Also, the pancreas histopathology result in data set [3] (morin 10, 15 mg/kg orally) is “significant dose dependent improvement in cellular architecture”. In addition, in data set [3] (morin 30, 50 mg/kg orally), the pancreas histopathology entry is listed as “normal histological pattern of pancreas”. The “acute toxicity (signs of toxicity, mortality)” value in data set [4] is “safe and nontoxic up to 500 mg/kg body weight”.
